Measurements as given in patent publication US11899025B2, “Pharmaceutical composition for preventing or treating neurodegenerative diseases comprising COX2 acetylating agent as active ingredient” (KYUNGPOOK NATIONAL UNIVERSITY INDUSTRY-ACADEMIC COOPERATION …, priority 2018, dated 2024).

Columns and labels:
APP/PS1 mice = assay: Alzheimer's animal model (APP/PS1 mice): immunofluorescence, Thioflavin S, Morris Water Maze; format: in vivo, mouse; details: 7-month-old APP/PS1 mice, 5 mg/kg N-acetyl sphingosine, 1 mg/kg FTY720 or 3 uM S1P daily for 4 weeks, intraperitoneal; for microglia (Iba1) in brain cortex vs APP/PS1 mice: FIG. 9a; for astrocytes (GFAP) in brain cortex vs APP/PS1 mice: FIG. 9b; for amount of Aβ / Aβ deposition (Thioflavin S) vs APP/PS1 mice: FIG. 9c; for memory and cognition (Morris Water Maze) vs APP/PS1 mice: FIG. 9d
Description: It has been approved for mouse experiments by the Kyungpook National University Institutional Animal Care and Use Committee (IACUC). A transgenic mouse line overexpressing APPswe (hAPP695swe) or PS1 (presenilin-1M146V) based on C57BL/6 mice (Charles River, UK) was used. [Hereinafter, APP mouse: mouse overexpressing APPswe, PS1 mouse: mouse overexpressing presenilin-1M146V; GlaxoSmithKline]. As an Alzheimer's (AD) animal model, SphK1 tg (SphK1 gene overexpressing mouse) was crossed with APP mice and APP/PS1 mice to prepare APP/PS1/SphK1 tg mice. Niemanpick (NP-C) animal model, Balb/C (Orient, Wild type), NPC mutant mouse lacking NPC1 gene (Provided by Riken, Japan, NP-C mice; less weight than normal mice of the same age, and severe motor function loss from 4 to 6 weeks of age, limb tremors and seizures appear, and lifespan is approximately 9 to 10 weeks. Is) was used. As an animal model for amyotrophic lateral sclerosis (ALS), a transgenic mouse (FUS) line overexpressing RUS R521C based on C57BL/6 mice (Charles River, UK) was used.
After fixing the cerebral and hippocampus of the mouse, anti-20G10 (mouse, 1:1000) against amyloid-β (Aβ) 42 and anti-G30 (rabbit, 1:1000) against Aβ 40, anti-MAP2 (chicken, 1:2000), anti-Synaptophysin (mouse, 1:100), anti-Synapsin1 (rabbit, 1:500), anti-PSD95 (mouse, 1:100), anti-Iba-1 (rabbit, 1:500), Anti-GFAP (rabbit, 1:500) was cultured together. The site was analyzed using a laser scanning confocal microscope or Olympus BX51 microscope equipped with Fluoview SV1000 imaging software (Olympus FV1000, Japan). Metamorph software (Molecular Devices) was used to quantify the percentage of the area of the stained area relative to the area of the total tissue.
In order to confirm the potential effect on learning and memory, MWM (Morris water maze) and fear conditioning experiments were performed. MWM learned the task 4 times a day for 10 days for the mice, the platform was removed on the 11th day, and a probe trial was performed. On the first day of Fear conditioning, the mice were placed in a conditioning chamber, and sound stimulation (10 kHz, 70 dB) and electrical stimulation (0.3 mA, 1 s) were given. On the second day, memory for the space was checked without stimulation in the same conditioning chamber as on the first day, and on the third day, a memory test for fear was performed when only sound stimulation was given in another conditioning chamber. An open field test was performed to evaluate motor ability and immediate activity. In the open field test, the mice were placed in a square box for 10 minutes to measure the overall exercise power, time, and distance.
(§1) In order to measure the neuroinflammatory resolution factor, after culturing neurons from mouse cerebrum, CM was prepared by treatment with 10 nM N-acetyl sphingosine 1 phosphate (Toronto Research chemicals, C262710) and N-acetyl sphingosine (Sigma, 01912). For COX2 acetylation analysis, neurons were cultured from mouse cerebrum and then treated with 2 uCi [^14C]N-acetyl sphingosine (ARC, ARC1024). In addition, for in vivo experiments, 7-month-old APP/PS1 mice were injected with 5 mg/kg N-acetyl sphingosine (Sigma, 01912), 1 mg/kg FTY720 and 3 uM S1P daily for 4 weeks via intraperitoneal injection. 1 month-old NPC mice were injected with 5 mg/kg N-acetyl sphingosine (Sigma, 01912) and 2-month-old FUS mice with 30 mg/kg N-acetyl sphingosine (Sigma, 01912) daily for 4 weeks via subcutaneous injection.
The present inventors confirmed AD lesions by injecting N-acetyl sphingosine, one of the COX2 acetylating agents identified through the above experiment, into an APP/PS1 animal model. First, in order to determine the effect of N-acetyl sphingosine on the neuroinflammatory response by secreting neuroinflammatory resolution factor, changes in microglia and astrocytes were observed. […]

APP/PS1 neurons = assay: neuroinflammatory resolution factor (SPMs) secretion in APP/PS1 neurons after COX2 acetylating agent treatment; format: cell-based, mouse; details: 10 nM; FIG. 8b
Experimental: A commercially available ELISA kit (Biosource) was used, and the hemispheres of mice were homogenized and placed in a buffer containing 0.02M guanidine to prepare a sample for Aβ ELISA. In order to measure the neuroinflammatory resolution factor, conditioned media (CM) was prepared after culturing neurons from mouse cerebrum. Thereafter, according to the manufacturer's manual, ELISA for Aβ and SPM was performed.
as §1
First, in order to confirm whether the selected compounds promote the secretion of neuroinflammatory resolution factor in neurons, after treatment with N-acetyl sphingosine 1 phosphate or N-acetyl sphingosine in APP/PS1 neurons, the expression levels of neuroinflammatory resolution factor were confirmed. As a result, it was confirmed that the expression levels of LxA4 and RvE1 in neurons of APP/PS1 mice were recovered when treated with N-acetyl sphingosine 1 phosphate or N-acetyl sphingosine (FIG. 8b).

SphK1 = SphK1 (Homo sapiens, UniProt Q9NYA1); assay: dissociation of acetyl-CoA from the acetyl-CoA:SphK1 complex, equilibrium dialysis; format: binding
[1] = substrate: CC(=O)SCCNC(=O)CCNC(=O)[C@H](O)C(C)(C)COP(=O)(O)OP(=O)(O)OC[C@H]1O[C@@H](n2cnc3c(N)ncnc32)[C@H](O)[C@@H]1OP(=O)(O)O; assay: purified protein, by the assay type; details: other: in the presence of 10 mM sphingosine; [3H]acetyl-CoA; FIG. 1a

Row | Molecule | microglia (Iba1) in brain cortex vs APP/PS1 mice (APP/PS1 mice) | astrocytes (GFAP) in brain cortex vs APP/PS1 mice (APP/PS1 mice) | amount of Aβ / Aβ deposition (Thioflavin S) vs APP/PS1 mice (APP/PS1 mice) | memory and cognition (Morris Water Maze) vs APP/PS1 mice (APP/PS1 mice) | further results
1 | CCCCCCCCc1ccc(CCC(N)(CO)CO)cc1 [FTY720] | no difference | no difference | no effect | no effect | –
2 | CCCCCCCCCCCCC/C=C/[C@@H](O)[C@@H](N)COP(=O)(O)O [S1P, sphingosine-1-phosphate] | no difference | no difference | no effect | no effect | –
3 | CCCCCCCCCCCCC/C=C/[C@@H](O)[C@H](COP(=O)(O)O)NC(C)=O [N-acetyl sphingosine 1 phosphate] | – | – | – | – | expression level of LxA4 in neurons of APP/PS1 mice (APP/PS1 neurons): recovered; expression level of RvE1 in neurons of APP/PS1 mice (APP/PS1 neurons): recovered
4 | CC(=O)SCCNC(=O)CCNC(=O)[C@H](O)C(C)(C)COP(=O)(O)OP(=O)(O)OC[C@H]1O[C@@H](n2cnc3c(N)ncnc32)[C@H](O)[C@@H]1OP(=O)(O)O [acetyl-CoA] | – | – | – | – | Kd (SphK1): 6.8 µM
5 | SphK1 (Homo sapiens) (protein) MDPAGGPRGVLPRPCRVLVLLNPRGGKGKALQLFRSHVQPLLAEAEISFTLMLTERRNHARELVRSEELGRWDALVVMSGDGLMHEVVNGLMERPDWETAIQKPLCSLPAGSGNALAASLNHYAGYEQVTNEDLLTNCTLLLCRRLLSPMNLLSLHTASGLRLFSVLSLAWGFIADVDLESEKYRRLGEMRFTLGTFLRLAALRTYRGRLAYLPVGRVGSKTPASPVVVQQGPVDAHLVPLEEPVPSHWTVVPDEDFVLVLALLHSHLGSEMFAAPMGRCAAGVMHLFYVRAGVSRAMLLRLFLAMEKGRHMEYECPYLVYVPVVAFRLEPKDGKGVFAVDGELMVSEAVQGQVHPNYFWMVSGCVEPPPSWKPQQMPPPEEPL | – | – | – | – | Km [1]: 58.2 µM; kcat [1]: 0.000308 s⁻¹
